In patent US11590117B2, “Treatment of a hematologic malignancy with 2-(4-chlorophenyl)-n-((2-(2,6-dioxopiperidin-3-yl)-1-oxoisoindolin-5-yl)methyl)-2,2-difluoroacetamide” (priority 2016, dated 2023) one finds induction of apoptosis and EC50 data, which are given here for 1 compound.

One test relates to selected AML cell lines. The test can be described thus: Annexin V/7-AAD flow cytometry apoptosis assay, panel of selected AML cell lines. Type of test: cell-based, human. The following applies: after 24 and 48 hours, in 4 out of the 5 cell lines evaluated. As to the method: Cell Apoptosis Assays: The ability of Compound 1 to induce apoptosis was assessed in selected AML cell lines and healthy PBMCs at the time points and compound concentrations indicated. For Annexin V/7-AAD readout by flow cytometry, AML cell lines were plated into flat bottom 96-well plates (BD Falcon) at a seeding density of 0.1 to 0.3×10^6 cells per mL in 200 μL complete media. Compound 1 was dispensed onto the plates and the cells were incubated for the times indicated. For frozen PBMCs, cells were thawed as previously described and plated at a seeding density of 1×10^6 cells per mL in 200 μL on Corning® BioCoat™ T-Cell Activation Anti-Human CD3 96-well plates (Corning Inc., Corning, N.Y.). Compound 1 was dispensed onto the plates and the cells were incubated for the times indicated. […] One hundred microliters of Annexin V/7-AAD buffer was added per well and the cells incubated for 15 minutes before being analyzed using the Attune Flow Cytometer (Life Technologies, Carlsbad, Calif.). For caspase 3/7 activity, the remaining 100 μL was incubated with CellEvent™ Caspase-3/7 Green ReadyProbes® Reagent (1:1000 dilution; Molecular Probes) for 15 minutes before being analyzed using the Attune Flow Cytometer. […]
Compound 1 Induces Apoptosis in Acute Myeloid Leukemia Cell Lines. […] 0.01 μM and 0.1 μM and apoptosis was assessed over time.
(In general: In flow cytometry, cells or beads pass a laser one at a time.)

A further test concerns TF-1. The test can be described thus: IncuCyte Kinetic Caspase-3/7 Apoptosis Assay. The note with it: Homo sapiens, read-out: Compound 1-induced Apoptosis EC50. The class given is cell-based. The source says:
(§1) Methods. Acute Myeloid Leukemia Cell Line Panel: Human AML cell lines, AML-193, F36-P, GDM-1, HL-60, HNT-34, Kasumi-1, Kasumi-3, KG-1, KG-1a, ML-2, MOLM-13, MUTZ-8, MV-4-11, NOMO-1, OCI-AML2, OCI-AML3, SIG-M5, TF-1, THP-1, and UT-7 were obtained from American Type Culture Collection (ATCC; Manassas, Va.) and Deutsche Sammlung von Mikroorganismen und Zellkulturen (DSMZ) (Germany) cell banks. The AML panel includes cell line(s) from each FAB classification (M0-M7) (Table 7).
(§2) Cell Culture Conditions: Cell lines were maintained in growth media containing 20% fetal bovine serum (FBS) (Hyclone Cat no. SH30910.03, Lot no. AZF188864; Corning REFno. 35-010-CV, Lot no. 35010124) supplemented with or without 10 ng/mL human recombinant granulocyte-macrophage colony stimulating factor (Sigma-Aldrich Cat no. SRP3050) (Table 8). Medium was purchased from ATCC (Cat no. 30-2001, 30-2002, 30-2003, 30-2005) and Gibco (REF no. 12561-056). Human recombinant granulocyte macrophage colony stimulating factor (GM-CSF) was expressed in Escherichia coli. The cell doubling times for each cell line were provided by ATCC and DSMZ. Cells were maintained in humidified incubators at 5% carbon dioxide (CO2). All cell lines were acclimated to Eagle's minimal essential medium (EMEM)+20% FBS with or without GM-CSF over 2 to 4 weeks prior to live cell imaging using IncuCyte Zoom (Essen Biosciences). The use of EMEM was necessary to eliminate background fluorescence caused by riboflavin in most media.
(§3) Incubation of Cell Cultures with Compound 1: Compound 1 was provided for studies by Celgene chemistry group at a stock concentration of 30 mM in 20 μL dimethyl sulfoxide (DMSO) frozen. Costar 96-well cell culture plates (Corning Cat no. 3595) were coated with 100 μL of 10 µg/mL fibronectin (Sigma-Aldrich Cat no. F1141) for 4 hours at 37° C. and immediately used or refrigerated overnight for later use. Cells (3000 to 6000 cells) were plated in growth medi in fibronectin-coated 96-well plates and incubated for a minimum of a few hours to overnight. Cells were incubated with a 12-point concentration response in triplicate with Compound 1 ([…]) including DMSO and Media controls. A 3-fold serial dilution of Compound 1 starting from a concentration of 200 μM in 0.6% DMSO (diluted in Media) was performed. For most sensitive cell lines, a 3-fold serial dilution of Compound 1 starting from a concentration of 20 μM in 0.6% DMSO (diluted in media) was performed. A volume of 5 μL or 10 μL for each dilution was added to 100 μL or 200 μL cells, respectively (0.3% DMSO final) and incubated for live cell imaging.
(§4) Live Cell Imaging on IncuCyte Zoom: Following incubation of cells with Compound 1, diluted Caspase 3/7 reagent (Essen Biosciences Cat no. 4440) is added to each well. The Caspase-3/7 reagent couples the activated caspase-3/7 recognition motif (DEVD) to NucView™488, a DNA intercalating dye. The cleavage of substrate by activated caspase-3/7 results in the release of the DNA dye and green fluorescent staining of nuclear DNA. This allows imaging of cells undergoing caspase-3/7 mediated apoptosis over time. Caspase-3/7 activation was quantified using the IncuCyte™ ZOOM basic analyzer. Red-labeled cell lines were also imaged over time using the IncuCyte™ ZOOM basic analyzer, for determination of both cell doubling time and Compound 1 effect on cell viability. Experiments were performed at least two times in each cell line.
(§5) Next, a 4 parameter log-logistic model was used to determine relative EC50 at each time point by the ‘drm’ function from the R ‘drc’ package (Ritz C, Streibig J C. Bioassay Analysis using R. J. Statist. Software 2005; 12(5):1-22). Goodness of fit was measured by R squared (coefficient of determination or the amount of variation explained by the model fit) of ≥80%, and EC50 parameter was assessed by having a ratio of standard error to the parameter of ≤40%, and the presence of at least one concentration point above and below the reported EC50. […]

The subject of a further test is OCI-AML3. The test can be described thus: IncuCyte Kinetic Caspase-3/7 Apoptosis Assay. The class given is cell-based. The note with it: Homo sapiens, read-out: Compound 1-induced Apoptosis EC50.
Excerpt: as §1, §2, §3, §4, §5

The next test has as its system Kasumi-1. Briefly: IncuCyte Kinetic Caspase-3/7 Apoptosis Assay. The note with it: Homo sapiens, read-out: Compound 1-induced Apoptosis EC50. Type of test: cell-based.
Excerpt: as §1, §2, §3, §4, §5

Read-outs that look alike come from different tables or passages of the source.

For orientation: EC50 means the concentration needed to bring the measured effect to its halfway point. For the compound `O=C1CCC(N2Cc3cc(CNC(=O)C(F)(F)c4ccc(Cl)cc4)ccc3C2=O)C(=O)N1` (stereo not shown) [Compound 1, 2-(4-chlorophenyl)-N-((2-(2,6-dioxopiperidin-3-yl)-1-oxoisoindolin-5-yl)methyl)-2,2-difluoroacetamide], in the test on selected AML cell lines, the induction of apoptosis entry was “marked induction of apoptosis”. The EC50 with TF-1 (48 hr) was determined as 129 nM; in the test on TF-1 (72 hr), 65 nM; in the test on TF-1 (96 hr) it was 64 nM; with OCI-AML3 (OCI-AML-3, 48 hr) it was 896 nM; with OCI-AML3 (OCI-AML-3, 72 hr), 971 nM; in the test on OCI-AML3 (OCI-AML-3, 96 hr), 418 nM. In addition, the EC50 in the test with Kasumi-1 (48 hr) amounted to 124 nM; with Kasumi-1 (72 hr), 254 nM; with Kasumi-1 (96 hr) it was 55 nM.
